How the values were obtained:
[1] = Acid dissociation constant (pKa) of the compound; assay type: physicochemical
[2] = target: Urokinase-type plasminogen activator (Homo sapiens, UniProt P00749); assay: Inhibitory activity against Urokinase-type plasminogen activator

Row | SMILES | pKa [1] | IC50 [2] [µM]
1 | Nc1nc2cc(O)ccc2[nH]1 | 7.4 | –
2 | N=C(N)c1ccc(N)cc1 | 11.4 | 7
3 | N=C(N)Nc1ccccc1 [PHENYLGUANIDINE] | 10.9 | 20
4 | Nc1nc2ccccc2[nH]1 | 7.5 | 200

From ChEMBL document CHEMBL1133467, “Identification of novel inhibitors of urokinase via NMR-based screening” (J Med Chem, 2000)
